# From paper PMC11968843, “Sulphostin-inspired N-phosphonopiperidones as selective covalent DPP8 and DPP9 inhibitors” (Nature Communications, 2025)
# “And” between values parts separate entries of the source, which are not always exact repeats. Identical values can stand only once. Like-named read-outs stand apart in the source and are kept apart here.
# Assays:
# Type in all cases: biochemical
# DPP4 [1] = molecular target: T1, DPP4 (Homo sapiens, UniProt P27487); assay: biochemical; conditions: for DPP4 activity [%]: replicates
# T1 construct: purchased Proteros Biostructures GmbH, Germany
# T1 sequence (P27487 whole entry): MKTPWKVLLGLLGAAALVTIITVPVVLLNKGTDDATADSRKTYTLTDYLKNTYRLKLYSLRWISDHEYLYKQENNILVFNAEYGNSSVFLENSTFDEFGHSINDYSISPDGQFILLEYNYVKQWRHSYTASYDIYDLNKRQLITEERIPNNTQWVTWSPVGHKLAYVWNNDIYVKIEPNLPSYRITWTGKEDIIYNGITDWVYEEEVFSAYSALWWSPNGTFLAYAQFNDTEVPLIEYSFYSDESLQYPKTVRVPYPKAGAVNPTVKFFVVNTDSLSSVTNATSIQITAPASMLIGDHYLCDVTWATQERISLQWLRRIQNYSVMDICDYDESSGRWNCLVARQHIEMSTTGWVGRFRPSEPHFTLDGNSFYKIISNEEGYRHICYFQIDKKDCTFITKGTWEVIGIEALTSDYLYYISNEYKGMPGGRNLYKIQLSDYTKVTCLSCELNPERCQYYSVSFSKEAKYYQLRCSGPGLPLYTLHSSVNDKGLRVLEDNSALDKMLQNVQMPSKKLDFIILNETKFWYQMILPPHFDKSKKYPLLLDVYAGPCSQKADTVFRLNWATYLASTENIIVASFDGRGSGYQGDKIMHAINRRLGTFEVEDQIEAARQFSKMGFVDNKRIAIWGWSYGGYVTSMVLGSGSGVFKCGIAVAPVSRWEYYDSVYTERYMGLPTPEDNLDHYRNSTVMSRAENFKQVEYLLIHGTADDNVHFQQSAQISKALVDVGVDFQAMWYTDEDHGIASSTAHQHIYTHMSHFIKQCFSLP
# Summary of the method: (§1)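 Initial velocity of AMC release from fluorogenic GP-AMC substrate read for up to 60 min at 30 °C in HEPES/KOH pH 7.3 buffer with 1 mM DTT. Enzyme (10 nM) preincubated 45 min at 30 °C with inhibitor (0–100 μM, 1% DMSO). IC50 from four-parameter variable-slope fit of triplicates.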
# DPP8 [2] = molecular target: T2, DPP8 (Homo sapiens, UniProt Q6V1X1); assay: biochemical
# T2 construct: purchased Proteros Biostructures GmbH, Germany
# T2 sequence (Q6V1X1 whole entry): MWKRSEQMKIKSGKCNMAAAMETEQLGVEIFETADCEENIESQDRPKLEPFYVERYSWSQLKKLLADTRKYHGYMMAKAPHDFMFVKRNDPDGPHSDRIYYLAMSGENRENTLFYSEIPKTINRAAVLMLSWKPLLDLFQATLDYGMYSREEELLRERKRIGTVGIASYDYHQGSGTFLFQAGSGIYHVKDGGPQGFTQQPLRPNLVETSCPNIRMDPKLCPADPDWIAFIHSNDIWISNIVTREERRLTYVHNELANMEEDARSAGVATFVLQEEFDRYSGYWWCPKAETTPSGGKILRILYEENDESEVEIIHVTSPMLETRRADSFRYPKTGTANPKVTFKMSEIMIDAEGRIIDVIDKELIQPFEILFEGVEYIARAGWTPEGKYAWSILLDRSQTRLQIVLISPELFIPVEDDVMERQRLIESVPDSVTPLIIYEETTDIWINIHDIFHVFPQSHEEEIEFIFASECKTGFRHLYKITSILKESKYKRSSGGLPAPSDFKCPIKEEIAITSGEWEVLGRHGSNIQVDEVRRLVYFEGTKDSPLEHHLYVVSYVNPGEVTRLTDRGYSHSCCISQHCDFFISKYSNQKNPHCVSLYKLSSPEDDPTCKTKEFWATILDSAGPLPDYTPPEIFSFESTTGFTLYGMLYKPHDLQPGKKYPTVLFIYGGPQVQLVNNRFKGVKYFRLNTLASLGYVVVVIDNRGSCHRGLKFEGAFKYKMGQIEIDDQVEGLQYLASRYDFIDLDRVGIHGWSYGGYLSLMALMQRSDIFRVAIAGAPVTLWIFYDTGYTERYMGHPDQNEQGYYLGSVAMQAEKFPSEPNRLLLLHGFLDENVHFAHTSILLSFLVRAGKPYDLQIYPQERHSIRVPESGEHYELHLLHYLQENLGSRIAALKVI
# Summary of the method: as §1
# DPP4 [3] = molecular target: T1, DPP4
# Method: To calculate the reaction rate of covalent bond formation between DPP proteins and inhibitor, kinact, KI and kapp was determined as previously described[30],[51]. […] Enzyme activity was measured for a maximum of 120 min at 30 °C, and fluorescence intensities were then plotted against time. Data was fitted to the following equation: Y=(vi/kobs)*(1−exp(−kobs*X)) using Graph-Pad Prism v10.2.3. The obtained pseudo-first-order rate constant was used to determine the maximum enzyme inhibition rate (kinact) and binding affinity (KI) by fitting the plot of kobs against inhibitor concentration to the following equation: Y=kinact/1+(KI/[I]) . The efficiency of covalent bond formation (kapp) was calculated by the ratio of kinact/KI. All measurements were performed in triplicates and error bars represent standard errors of the fit.
# DPP8 [4] = molecular target: T2, DPP8; assay: Time-dependent DPP8 inhibition kinetics (kobs, KI, kinact, kapp)
# Method: (§2) To calculate the reaction rate of covalent bond formation between DPP proteins and inhibitor, kinact, KI and kapp was determined as previously described[30],[51]. Therefore, 250 µM GP-AMC was added simultaneously with a serial dilution of the inhibitor to 10 nM enzyme. Enzyme activity was measured for a maximum of 120 min at 30 °C, and fluorescence intensities were then plotted against time. Data was fitted to the following equation: Y=(vi/kobs)*(1−exp(−kobs*X)) using Graph-Pad Prism v10.2.3. The obtained pseudo-first-order rate constant was used to determine the maximum enzyme inhibition rate (kinact) and binding affinity (KI) by fitting the plot of kobs against inhibitor concentration to the following equation: Y=kinact/1+(KI/[I]) . The efficiency of covalent bond formation (kapp) was calculated by the ratio of kinact/KI. All measurements were performed in triplicates and error bars represent standard errors of the fit.
# DPP9 [5] = molecular target: T3, DPP9 (Homo sapiens, UniProt Q86TI2); assay: biochemical; parameters: purchased Proteros Biostructures GmbH, Germany; conditions: for DPP9 activity [%]: replicates
# T3 sequence (Q86TI2 whole entry): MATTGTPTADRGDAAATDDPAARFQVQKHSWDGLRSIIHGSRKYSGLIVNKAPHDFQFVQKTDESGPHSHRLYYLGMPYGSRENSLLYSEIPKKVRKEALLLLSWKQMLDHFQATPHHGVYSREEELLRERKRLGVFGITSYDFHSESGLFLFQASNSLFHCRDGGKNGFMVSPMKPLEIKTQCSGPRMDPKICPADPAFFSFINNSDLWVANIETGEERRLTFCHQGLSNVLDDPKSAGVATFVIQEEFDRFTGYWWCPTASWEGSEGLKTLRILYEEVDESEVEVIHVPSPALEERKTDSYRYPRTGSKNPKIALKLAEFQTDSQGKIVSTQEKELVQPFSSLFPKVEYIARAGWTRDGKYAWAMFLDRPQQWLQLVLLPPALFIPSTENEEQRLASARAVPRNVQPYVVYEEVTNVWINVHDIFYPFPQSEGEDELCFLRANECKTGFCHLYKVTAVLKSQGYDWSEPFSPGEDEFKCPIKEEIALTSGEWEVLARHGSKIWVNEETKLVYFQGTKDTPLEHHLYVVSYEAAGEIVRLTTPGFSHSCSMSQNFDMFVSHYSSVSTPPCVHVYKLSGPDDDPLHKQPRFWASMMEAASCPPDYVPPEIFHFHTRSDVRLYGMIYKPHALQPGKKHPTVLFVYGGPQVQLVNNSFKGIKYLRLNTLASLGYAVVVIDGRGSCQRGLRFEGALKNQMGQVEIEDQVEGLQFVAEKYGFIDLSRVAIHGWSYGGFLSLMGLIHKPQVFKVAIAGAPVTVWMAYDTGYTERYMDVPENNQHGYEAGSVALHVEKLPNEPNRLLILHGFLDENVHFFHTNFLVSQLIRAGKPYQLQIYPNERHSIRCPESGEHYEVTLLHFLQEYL
# Summary of the method: as §1
# DPP9 [6] = molecular target: T3, DPP9; assay: Time-dependent DPP9 inhibition kinetics (kobs, KI, kinact, kapp); parameters: purchased Proteros Biostructures GmbH, Germany
# Method: as §2
# [7] = irreversible inhibition, fit of kobs vs inhibitor concentration
smiles,measurement,setting,value
CCCCCc1ccc(SCCP(=O)(OCC)N2CCC[C@H](N)C2=O)cc1.O=C(O)C(F)(F)F (stereo partly drawn) [Compound 16],IC50,"DPP4 [1]; GP-AMC 250 µM, 10 nM enzyme, 45 min pre-incubation at 30 °C, read-out: IC50 DPP4",16.1 µM
same,DPP4 activity [%],DPP4 [1]; c 15.625 nM,93.2714% and 107.175% and 106.746%
same,DPP4 activity [%],DPP4 [1]; c 31.25 nM,98.0992% and 97.1086% and 101.856%
same,DPP4 activity [%],DPP4 [1]; c 62.5 nM,102.891% and 92.9769% and 100.41%
same,DPP4 activity [%],DPP4 [1]; c 250 nM,99.4378% and 98.9828% and 107.906%
same,DPP4 activity [%],DPP4 [1]; c 500 nM,104.087% and 100.437% and 100.482%
same,DPP4 activity [%],DPP4 [1]; c 1000 nM,94.3422% and 97.3674% and 95.7968%
same,DPP4 activity [%],DPP4 [1]; c 1562.5 nM,95.896% and 97.1752% and 96.7627%
same,DPP4 activity [%],DPP4 [1]; c 3125 nM,92.5869% and 89.2118% and 84.6321%
same,DPP4 activity [%],DPP4 [1]; c 6250 nM,85.4573% and 71.7259% and 79.6149%
same,DPP4 activity [%],DPP4 [1]; c 25000 nM,32.8097% and 29.6905% and 29.938%
same,DPP4 activity [%],DPP4 [1]; c 50000 nM,6.082% and 4.679% and 4.407%
same,DPP4 activity [%],DPP4 [1]; c 100000 nM,0.3548% and 1.386% and 0.7592%
same,IC50,"DPP8 [2]; GP-AMC 250 µM, 10 nM enzyme, 45 min pre-incubation at 30 °C, read-out: IC50 DPP8",0.014 ± 0.001 µM
same,DPP8 activity [%],"DPP8 [2]; c 15.625 nM, replicates",42.4788% and 41.4194% and 46.9279%
same,DPP8 activity [%],"DPP8 [2]; c 25 nM, replicates",28.7129% and 21.6298% and 23.9147%
same,DPP8 activity [%],"DPP8 [2]; c 31.25 nM, replicates",25% and 29.6611% and 26.8008%
same,DPP8 activity [%],"DPP8 [2]; c 50 nM, replicates",11.5004% and 14.9276% and 11.5003%
same,DPP8 activity [%],"DPP8 [2]; c 62.5 nM, replicates",11.5466% and 15.9958% and 12.9237%
same,DPP8 activity [%],"DPP8 [2]; c 100 nM, replicates",5.331% and 3.808% and 3.884%
same,DPP8 activity [%],"DPP8 [2]; c 250 nM, replicates",4.449% (2×) and 5.085%
same,DPP8 activity [%],"DPP8 [2]; c 500 nM, replicates",3.39% and 4.449% and 3.1779%
same,DPP8 activity [%],"DPP8 [2]; c 1000 nM, replicates",3.496% and 1.907% and 2.6483%
same,DPP8 activity [%],"DPP8 [2]; c = 1.5625 nM inhibitor, individual replicates",85.6817% and 91.6222% and 85.0724%
same,DPP8 activity [%],"DPP8 [2]; c = 3.125 nM inhibitor, individual replicates",102.513% and 82.8637% and 92.1555%
same,DPP8 activity [%],"DPP8 [2]; c = 6.25 nM inhibitor, individual replicates",73.0388% and 69.9924% and 75.3236%
same,DPP8 vs. DPP9 selectivity,DPP8 [2]; from IC50 values,~ 21 fold
same,selectivity of DPP8 inhibition over DPP4,DPP8 [2]; from IC50 values,~ 1154 fold
same,kobs DPP4,DPP4 [3]; c 250 µM,0.003317 s⁻¹
same,kobs DPP4,DPP4 [3]; c 1000 µM,0.006797 s⁻¹
same,kinact DPP4,DPP4 [3]; [7],0.01027 s⁻¹
same,kapp DPP4,DPP4 [3]; ratio kinact/KI,20 M⁻¹ s⁻¹
same,KI (inactivation),"DPP4 [3]; source data, read-out: KI [M] best fit DPP4",0.000512 M
same,kobs DPP8,DPP8 [4]; c 0.003125 µM,7.927e-05 s⁻¹
same,kobs DPP8,DPP8 [4]; c 0.025 µM,0.0001486 s⁻¹
same,kinact DPP8,DPP8 [4]; [7],0.00018 s⁻¹
same,KI (inactivation),"DPP8 [4]; irreversible inhibition, fit of kobs vs inhibitor concentration, read-out: KI DPP8",4e-09 ± 2e-09 M
same,KI (inactivation),"DPP8 [4]; source data, read-out: KI [M] best fit DPP8",3.53e-09 M
same,IC50,"DPP9 [5]; GP-AMC 250 µM, 10 nM enzyme, 45 min pre-incubation at 30 °C, read-out: IC50 DPP9",0.298 ± 0.021 µM
same,DPP9 activity [%],DPP9 [5]; c 15.625 nM,90.8881% and 85.3617% and 82.8729%
same,DPP9 activity [%],DPP9 [5]; c 31.25 nM,91.5419% and 83.379% and 89.0951%
same,DPP9 activity [%],DPP9 [5]; c 62.5 nM,100.148% and 96.4776% and 87.1335%
same,DPP9 activity [%],DPP9 [5]; c 156.25 nM,75.5857% and 64.6658% and 62.3826%
same,DPP9 activity [%],DPP9 [5]; c 250 nM,60.7045% and 50.2004% and 47.0576%
same,DPP9 activity [%],DPP9 [5]; c 312.5 nM,47.5512% and 45.1489% and 49.4375%
same,DPP9 activity [%],DPP9 [5]; c 500 nM,25.3111% and 25.3533% and 24.7205%
same,DPP9 activity [%],DPP9 [5]; c 625 nM,28.2131% and 30.5361% and 23.7856%
same,DPP9 activity [%],DPP9 [5]; c 1000 nM,10.0823% and 10.3775% and 12.2759%
same,DPP9 activity [%],DPP9 [5]; c 2500 nM,5.122% and 5.281% and 6.135%
same,DPP9 activity [%],DPP9 [5]; c 5000 nM,3.4348% and 3.693% and 4.11%
same,DPP9 activity [%],DPP9 [5]; c 10000 nM,2.0053% and 1.966% and 1.707%
same,kobs DPP9,DPP9 [6]; c 0.0625 µM,0.0001274 s⁻¹
same,kobs DPP9,DPP9 [6]; c 0.25 µM,0.0002545 s⁻¹
same,kobs DPP9,DPP9 [6]; c 1 µM,0.0004155 s⁻¹
same,kinact DPP9,DPP9 [6]; [7],0.0005 ± 0.00007 s⁻¹
same,KI (inactivation),"DPP9 [6]; irreversible inhibition, fit of kobs vs inhibitor concentration, read-out: KI DPP9",2.16e-07 ± 9e-08 M
same,KI (inactivation),"DPP9 [6]; source data, read-out: KI [M] best fit DPP9",2.16e-07 M
